The nature of this series: CBD trough plasma concentration in clinical trials CBD-CT1 and CBD-PT (LC-MS/MS). It counts as in vivo, patients. The note with it: for concentration at 7 day: Day 7, mean ± SD; for concentration at 14 day: Day 14, mean ± SD. As for the experimental part:
CBD was administered as an oral dose in a capsule formulation. The dose was increased during the first week from 200 mg/d to 800 mg/d (4×200 mg) and remained at this level for the rest of the study period. Due to serious unwanted effects, the dose could be reduced irreversibly to 600 mg/d starting with day 15. […] Dose applications, blood sampling, and assessment of PANSS followed the time schedule presented below. Additional treatment with 7.5 mg lorazepam per day during the whole study period was permitted. […]
Eighteen patients with a diagnosis of schizophrenia or schizophreniform disorder should be included in this trial per protocol. Because dropouts had to be replaced by a new patient a total number of 29 patients was randomized from February 2006 to June 2008. All randomized patients complied with all inclusion and exclusion criteria: age between 18 and 65, male and female, specific DSM-IV diagnoses, initial BPRS score≥36, no pregnancy or lactation phase, reliable contraception, no lack of accountability, no other relevant interferences, no treatment with depot-antipsychotics during the last three months, no severe internal or neurological illness, no QTc prolongation, no acute suicidality nor endangerment of others by the patient. […] Treatment lasted four weeks: the first period with two weeks of CBD or placebo treatment was followed by a second period with a two-week treatment of placebo or CBD, respectively. There was no washout period between the two treatments. […] The dose could be reduced irreversibly to 400 mg/d in case of serious unwanted effects. […] The PANSS was applied at baseline and day 14 and 28. Dose applications, blood sampling, and assessment of PANSS followed the time schedule presented below. Additional treatment with 5.0 mg lorazepam per day during the whole study period was permitted. […]
Therefore, documentation of time points when CBD was administered and when blood samples were taken was limited and not included in the electronic data. Information on possible dose reductions e.g. due to adverse events were missing in the electronic data, too. In cooperation with the PI, time points were inputted based on standard routines on the ward: application of study medication was set to 9:00 AM, 12:30 PM, 6:30 PM, and 10:00 PM, and blood sampling was scheduled at 8:45 AM. Assessment of the PANSS was also timed to 8:45 AM. The loss of accuracy by standardizing times was considered acceptable because the time interval between doses and blood sampling is long, so small deviations would have no major impact. Information on actually applied doses or reduced doses was updated in cooperation with a member of the PI's research group. Based on notes in archived patient's case report files and other paper-based documents the electronic data was adjusted.
After consultation with the PI, these values were replaced with 0 because all patients with positive drug screening were excluded from the clinical trial according to the study protocol. Baseline values>0 may result from errors in procedure e.g. when blood samples were taken after dose application. Therefore, the replacement is considered as being equivalent to an imputation of a predose measurement which was not conducted.

Setting [1] is: both sexes, human, plasma, oral capsule 600 mg/d, cross-over with placebo.

In the case of `C=C(C)[C@@H]1CCC(C)=C[C@H]1c1c(O)cc(CCCCC)cc1O` [CBD, cannabidiol], where the note is “Day 21, mean ± SD, cross-over, 0 PT patients under CBD treatment per table”, the “CBD plasma concentration, CBD-PT” value worked out at 4.0 ± 1.2 µg/L. Moreover, the concentration at 28 day is, setting by setting: (both sexes, human, plasma, oral, 600 mg/d) 2.3 ± 1 ng/mL; (human, plasma, oral, Day 28, mean ± SD, CBD-CT1 + CBD-PT pooled) 29.2 ± 27.8 ng/mL; (human, plasma, Day 28, mean ± SD, oral capsule 800 mg/d, trough) 42.6 ± 24.7 ng/mL. The concentration at 7 day runs as follows: (both sexes, human, plasma, oral, 600 mg/d, CBD-CT1 + CBD-PT pooled (only PT measured)) 14.1 ± 9.1 ng/mL; under setting [1], 14.1 ± 9.1 ng/mL. Under “both sexes, human, plasma, oral, 600 mg/d, Day 21, mean ± SD, pooled (only PT measured)”, this compound came in with a concentration at 21 day of 4 ± 1.2 ng/mL. Also, the concentration at 14 day runs as follows: under setting [1], 19.3 ± 8.7 ng/mL; (human, plasma, oral, CBD-CT1 + CBD-PT pooled) 35.4 ± 22.6 ng/mL; (human, plasma, oral capsule 800 mg/d (titrated from 200 mg/d in first week), trough) 50.5 ± 21.2 ng/mL.

The record behind these values is patent US20240192237A1 (curantis UG, priority 2021, published 2024).
